Like-named read-outs stand apart in the source and are kept apart here.
Columns and labels:
Type in all cases: cell-based
P mirabilis C977 = experiment: Antibacterial activity (MIC) against P mirabilis C977
Ps aeruginosa 10662 = experiment: Antibacterial activity (MIC) against Ps aeruginosa 10662
Klebsiella aerogenes A = experiment: Antibacterial activity (MIC) against Klebsiella aerogenes A
Staph. aureus Oxford = experiment: Antibacterial activity (MIC) against Staph. aureus Oxford; conditions: Staphylococcus aureus
E Coli JT 425 = experiment: Antibacterial activity (MIC) against E Coli JT 425
[1] = Proteus mirabilis, P. Mirabilis C977, table, read-out: Antibacterial activities (MIC)
[2] = Pseudomonas aeruginosa, Ps. Aeruginosa 10662, table, read-out: Antibacterial activities (MIC)
[3] = Klebsiella Aerogenes A, table, read-out: Antibacterial activities (MIC)
[4] = Staph Aureus Oxford, table, read-out: Antibacterial activities (MIC)
[5] = Escherichia coli, E. Coli JT 425, table, read-out: Antibacterial activities (MIC)
[6] = P mirabilis C977, example, read-out: Antibacterial activity (MIC)
[7] = Ps aeruginosa 10662, example, read-out: Antibacterial activity (MIC)
[8] = Klebsiella aerogenes A, example, read-out: Antibacterial activity (MIC)
[9] = Staph. aureus Oxford, example, read-out: Antibacterial activity (MIC)

CO[C@@]1(NC(=O)[C@H](NC(=O)Nc2cnc(Nc3ccc(S(N)(=O)=O)cc3)nc2O)c2cccs2)C(=O)N2[C@@H](C(=O)O)C(C)(C)S[C@@H]21 [Example 4, Sodium 6β-[D-2-[3-[2-(4-aminosulphonylphenylamino)-4-hydroxypyrimidin-5-yl]ureido]-2-(thien-2-yl)acetamido]-6,a-methoxypenicillanate.]
MIC (P mirabilis C977; [1]): 1 µg/mL
MIC (Ps aeruginosa 10662; [2]): 10 µg/mL
MIC (Klebsiella aerogenes A; [3]): 0.2 µg/mL
MIC (Staph. aureus Oxford; [4]): 10 µg/mL
MIC (E Coli JT 425; [5]): 1 µg/mL

CO[C@@]1(NC(=O)C(NC(=O)Nc2cnc(Nc3ccc(S(N)(=O)=O)cc3)nc2O)c2ccc(OC(C)=O)c(OC(C)=O)c2)C(=O)N2[C@@H](C(=O)O)C(C)(C)S[C@@H]21 (stereo partly drawn) [Example 9, Sodium 6,B-[D,L-2-[3-[2-(4-aminosulphonylphenylamino)-4-hydroxypyrimidin-5-yl]ureido]-2-(3,4-diacetoxyphenyl)acetamido]-6,a-methoxypenicillanate]
MIC (P mirabilis C977; [1]): 2 µg/mL
MIC (Ps aeruginosa 10662; [2]): 1 µg/mL
MIC (Klebsiella aerogenes A; [3]): < 0.06 µg/mL
MIC (Staph. aureus Oxford; [4]): < 128 µg/mL
MIC (E Coli JT 425; [5]): 1 µg/mL

CO[C@@]1(NC(=O)C(NC(=O)Nc2cnc(Nc3ccc(S(N)(=O)=O)cc3)nc2O)c2ccco2)C(=O)N2[C@@H](C(=O)O)C(C)(C)S[C@@H]21 (stereo partly drawn) [Example 6, Sodium 6,β-[D,L-2-[3-[2-(4-aminosulphonylphenylamino), -4-hydroxypyrimidin-5-yl]-ureido]-2-(furan-2-yl)acetamido]-6,a-methoxy penicillanate]
MIC (P mirabilis C977; [1]): 2 µg/mL
MIC (Ps aeruginosa 10662; [2]): 32 µg/mL
MIC (Klebsiella aerogenes A; [3]): 0.12 µg/mL
MIC (Staph. aureus Oxford; [4]): 16 µg/mL
MIC (E Coli JT 425; [5]): 8 µg/mL

CO[C@@]1(NC(=O)[C@H](NC(=O)Nc2cnc(Nc3ccc(S(N)(=O)=O)cc3)nc2O)c2ccc(O)cc2)C(=O)N2[C@@H](C(=O)O)C(C)(C)S[C@@H]21 [Example 3, Sodium 6,β-[D-2-[3-[2-(4-aminosulphonylphenylamino)-4-hydroxypyrimidin-5-yl]ureido]-2-(4-hydroxyphenyl)acetamido]-6,a-methoxypenicillanate]
MIC (P mirabilis C977; [6]): 1.25 µg/mL
MIC (Ps aeruginosa 10662; [7]): 25 µg/mL
MIC (Klebsiella aerogenes A; [8]): 0.2 µg/mL
MIC (Staph. aureus Oxford; [9]): 50 µg/mL
MIC (E Coli JT 425; E Coli JT 425, example, read-out: Antibacterial activity (MIC)): 2.5 µg/mL

CO[C@@]1(NC(=O)C(NC(=O)Nc2cnc(Nc3ccc(S(N)(=O)=O)cc3)nc2O)c2ccc(F)cc2)C(=O)N2[C@@H](C(=O)O)C(C)(C)S[C@@H]21 (stereo partly drawn) [Example 8, Sodium 6,B-[D,L-2-[3-[2-(4-aminosulphonylphenylamino)-4-hydroxy-pyrimidin-5-yl]ureido]-2-(4-fluorophenyl)-acetamido]-6,a-methoxypenicillanic.]
MIC (P mirabilis C977; [1]): 8 µg/mL
MIC (Ps aeruginosa 10662; [2]): 128 µg/mL
MIC (Klebsiella aerogenes A; [3]): 8 µg/mL
MIC (Staph. aureus Oxford; [4]): 64 µg/mL
MIC (E Coli JT 425; [5]): 16 µg/mL

CO[C@@]1(NC(=O)[C@H](NC(=O)Nc2cnc(Nc3ccc(S(N)(=O)=O)cc3)nc2O)c2ccccc2)C(=O)N2[C@@H](C(=O)O)C(C)(C)S[C@@H]21 [Example 1, Sodium 6,β-(D-2-[3-[2-(4-aminosulphonylphenylamino)-4-hydroxypyrimidin-5-yl]ureido]-2-phenylacetamido] -6,a-methoxypenicillanate]
MIC (P mirabilis C977; [6]): 2.5 µg/mL
MIC (Ps aeruginosa 10662; [7]): 50 µg/mL
MIC (Klebsiella aerogenes A; [8]): 2.5 µg/mL
MIC (Staph. aureus Oxford; [9]): 10 µg/mL

CO[C@@]1(NC(=O)C(NC(=O)Nc2cnc(Nc3ccc(S(N)(=O)=O)cc3)nc2O)c2ccccc2F)C(=O)N2[C@@H](C(=O)O)C(C)(C)S[C@@H]21 (stereo partly drawn) [Example 7, Sodium 6,B-[D,L-2-[3-[2-(4-aminosulphonylphenylamino) -4-hydroxypyrimidin-5-yl]ureido]-2-(2-fluorophenyl)acetamido]-6,a-methoxypenicillanate]
MIC (P mirabilis C977; [1]): 1 µg/mL
MIC (Ps aeruginosa 10662; [2]): 16 µg/mL
MIC (Klebsiella aerogenes A; [3]): 0.25 µg/mL
MIC (Staph. aureus Oxford; [4]): 16 µg/mL
MIC (E Coli JT 425; [5]): 1 µg/mL

CO[C@@]1(NC(=O)[C@@H](NC(=O)Nc2cnc(Nc3ccc(S(N)(=O)=O)cc3)nc2O)c2cccs2)C(=O)N2[C@@H](C(=O)O)C(C)(C)S[C@@H]21 [Example 5, Sodium 6,β-[L-2-[3-[2-(4 aminosulphonylphenylamino)-4-hydroxy-pyrimidin-5-yl]ureido]-2-thien-2-y-)acetamido]-6α methoxypenicillanate]
MIC (P mirabilis C977; [1]): 2.5 µg/mL
MIC (Ps aeruginosa 10662; [2]): 50 µg/mL
MIC (Klebsiella aerogenes A; [3]): 1 µg/mL
MIC (Staph. aureus Oxford; [4]): 25 µg/mL
MIC (E Coli JT 425; [5]): 2.5 µg/mL
